Consider 28 molecules from patent US10428018B2, “ROR gamma (RORy) modulators” (LEAD PHARMA HOLDING B.V., priority 2015, dated 2019).

Where two headings read alike, the source gives them in different places. Some results are limits rather than exact numbers.

One assay has as its target T1, RORγ (Homo sapiens, UniProt P51449).
T1 construct: expressed in transfected cells; host or cells: 293FT cells (Invitrogen), expression vector pFN26A (Promega)
T1 sequence (P51449 269-508 limits assumed): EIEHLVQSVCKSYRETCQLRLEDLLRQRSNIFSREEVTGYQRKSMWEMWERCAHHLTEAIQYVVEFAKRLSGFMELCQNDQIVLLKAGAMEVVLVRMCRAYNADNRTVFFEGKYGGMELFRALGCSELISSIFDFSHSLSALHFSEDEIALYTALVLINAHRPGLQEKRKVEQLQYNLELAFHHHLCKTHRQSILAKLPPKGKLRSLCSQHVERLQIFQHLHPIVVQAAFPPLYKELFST
In words: RORγ GAL4 reporter gene assay (luciferase readout, 293FT cells). In kind it is cell-based. As to conditions: inhibition of RORγ (GAL4-RORγ-LBD) luciferase signal in transfected 293FT cells, overnight incubation; read-out: mean pIC50 (converted). The method, then: Example inhibitors 1-45 were tested for their ability to inhibit RORγ activity in a RORγ GAL4 reporter gene assay.
The RORγ ligand-binding domain (LBD) was fused to the yeast GAL4 DNA binding domain (DBD) and placed under the control of the human cytomegalovirus (CMV) immediate early promoter, using expression vector pFN26A (Promega) and standard recombinant DNA cloning methods.
To monitor the inhibitory effect of compounds on RORγ, a transcriptional reporter construct was used. The pGL4.35 vector (Promega) contains nine copies of the GAL4 Upstream Activator Sequence (UAS). This sequence drives the transcription of the luciferase reporter gene luc2P in response to binding of a fusion protein containing the GAL4 DNA binding domain, as for example expressed by the GAL4-RORγ-LBD and GAL4-VP16 expression vectors described above.
The day after transfection, cells were plated into 96 well plates, test compound was added and the plates were incubated overnight. Subsequently, the firefly luciferase activity was quantified using luciferase detection reagent and luminescence readout.
1500 μL of this reagent mixture was added to 5 μg of GAL4 fusion protein expression vector and 5 μg of the transcriptional reporter construct, and incubated at RT for 20 minutes.
Subsequently, the cells were washed with Phosphate Buffered Saline (PBS) (Lonza), after which the PBS was removed. To dissociate the cells, 1 ml of TrypLE Express (Invitrogen) was added to the flask, followed by incubation at RT until the cells visually started to detach. Cells were collected in 5 mL of assay medium (DMEM culture medium (Lonza), 10% dialyzed FBS (Invitrogen) and Pen/Strep (Lonza)) to achieve a single cell suspension. 10×10^6 cells were spun down and re-suspended in 10 mL of assay medium.
For compound screening, the cells were harvested (as described above) and counted. […] 80 μL of cell suspension (60,000 cells) was plated per well into a white, flat bottom, tissue culture treated, 96 well screening plates (Greiner).
Subsequently, these solutions were diluted to 5× the final test concentration in two 10-fold-dilution steps in assay medium. The final DMSO concentration of the 5× test compound solution was 1%. 20 μL of the 5× test compound solution was added to each test well of the 96 well plate previously plated with 80 μl cell suspension, resulting in the final test concentration with 0.2% DMSO.
For the luciferase readout, the luciferase reagent (Britelite Plus, Perkin Elmer) was brought to RT. To each test well of the screening plates, 100 μL of 2.5-fold diluted Britelite Plus reagent was added, followed by incubation at RT for 10 minutes. The luciferase luminescence signal was measured using a Wallac Victor Microplate Reader (Perkin Elmer).
In general terms: A reporter such as luciferase makes a cellular process visible.

In assay [1] the test system is IL-17A production in anti-CD3/anti-CD28 stimulated peripheral blood mononuclear cells (PBMCs). Briefly: Peripheral blood mononuclear cell (PBMC) IL-17 assay. The following applies: Homo sapiens, 120 h.
Procedure: This assay is designed to measure the levels of IL-17A secreted from anti-CD3/anti-CD28 stimulated PBMCs with the aim of measuring RORγ mediated inhibition of IL-17A production.
The assay medium consists of 90% RPMI 1640 (Lonza), 10% heat inactivated fetal bovin serum (FBS, Lonza) and 100 U/mL penicillin/streptomycin solution.
Anti-CD3 antibody (BD Pharmingen) was diluted to 10 μg/ml in PBS (Lonza). 30 μL of 10 μg/ml anti-CD3 solution was added to the inner 60 wells, excluding any negative control wells, of a 96-well cell culture treated U-bottom plate (Greiner). Plates were incubated overnight (16-24 hours) at 37° C. and 5% CO2.
Peripheral blood mononuclear cells were separated from buffy coats (Sanquin) using Ficoll-Paque PREMIUM separation medium (GE Healthcare Life Sciences) according to manufacturer's protocol and re-suspended in assay medium at 37° C.
Test compounds were diluted, starting from a 10 mM dimethylsulfoxide (DMSO) stock solution, to serial dilutions in DMSO at 200× the final test concentration. Subsequently, these solutions were diluted in two dilution steps in assay medium to 10× the final test concentration. The DMSO concentration of the 10× test compound solution was 5%.
Anti-CD28 antibody (BD Pharmingen) was diluted to 20 μg/mL in PBS.
For compound screening, the anti-CD3 coated plates were washed three times with PBS, the wells were subsequently aspirated using vacuum. To each screening well 80 μL of the PBMC suspension, 10 μL of the anti-CD28 solution and 10 μL of the 1 Ox test compound solution was added, resulting in the final test concentration with 0.5% DMSO. All outer wells were filled with assay medium to prevent evaporation. Plates were incubated for 5 days at 37° C. and 5% CO2.
After incubation the plates were spun down at 1500 rpm for 4 minutes and the supernatant was collected. Subsequently, the IL-17A levels in the supernatants was determined using an IL-17 ELISA kit (human IL-17 DuoSet, R&D systems) according to manufacturer's protocol.
The half maximum inhibitory concentration (IC50) values for the test compounds were calculated from the IL-17A signal using GraphPad Prism software (GraphPad Software).
The mark [2] stands for this setting: read-out: mean pIC50, inhibition of IL-17A secretion (ELISA), human PBMCs, anti-CD3/anti-CD28 stimulated, 5 days (converted).

`CCS(=O)(=O)c1ccc(CC(=O)Nc2ccc(C(=O)N(C)Cc3ccccc3)cc2)cc1` [Example 26, N-benzyl-4-{2-[4-(ethanesulfonyl)phenyl]acetamido}-N-methylbenzamide]: the IC50 on RORγ is ≤ 1000 nM.

Consider `CCS(=O)(=O)c1ccc(CC(=O)Nc2ccc(C(=O)N(C)c3cc(C)on3)cc2)cc1` [Example 1, 4-{2-[4-(ethanesulfonyl)phenyl]acetamido}-N-methyl-N-(5-methyl-1,2-oxazol-3-yl)benzamide], for which the IC50 at RORγ was ≤ 1000 nM.

In the case of `CCN(C(=O)c1ccc(NC(=O)Cc2ccc(S(=O)(=O)CC)cc2)cc1)c1cccnc1` [Example 32, 4-{2-[4-(ethanesulfonyl)phenyl]acetamido}-N-ethyl-N-(pyridin-3-yl)benzamide], the IC50 on RORγ is ≤ 1000 nM.

As for `CCS(=O)(=O)c1ccc(CC(=O)Nc2ccc(C(=O)N(c3ccccc3)C(C)(C)C3CCCO3)cc2)cc1` (stereo not drawn) [Example 18, 4-{2-[4-(ethanesulfonyl)phenyl]acetamido}-N-[2-(oxolan-2-yl)propan-2-yl]-N-phenylbenzamide], the IC50 was ≤ 100 nM in assay [1] (setting [2]) and ≤ 10 nM on RORγ.

`CCN(C(=O)c1ccc(NC(=O)Cc2ccc(S(=O)(=O)CC)cc2)cc1)c1cc(C)no1` [Example 3, 4-{2-[4-(ethanesulfonyl)phenyl]acetamido}-N-ethyl-N-(3-methyl-1,2-oxazol-5-yl)benzamide]: at RORγ, the IC50 was ≤ 100 nM.

For the molecule `CCS(=O)(=O)c1ccc(CC(=O)Nc2ccc(C(=O)N(c3ccccc3)C(C)(C)C)cc2)cn1` [Example 44, N-tert-butyl-4-{2-[6-(ethanesulfonyl)pyridin-3-yl]acetamido}-N-phenylbenzamide], the IC50 (in assay [1] (setting [2]); at RORγ) was ≤ 100 nM each time.

Take `CCS(=O)(=O)c1ccc(CC(=O)Nc2ccc(C(=O)N(C3CCC3)C3CCC3)cc2)cc1` [Example 35, N, N-dicyclobutyl-4-{2-[4-(ethanesulfonyl)phenyl]acetamido}benzamide]: at RORγ, the IC50 was ≤ 1000 nM.

For the molecule `CCS(=O)(=O)c1ccc(CC(=O)Nc2ccc(C(=O)N(c3ccc(C)cc3)C(C)(C)C3CCCO3)cc2)cc1` (stereo not drawn) [Example 17, 4-{2-[4-(ethanesulfonyl)phenyl]acetamido}-N-(4-methylphenyl)-N-[2-(oxolan-2-yl)propan-2-yl]benzamide], the IC50 in assay [1] (setting [2]) was ≤ 100 nM.

`CCS(=O)(=O)c1ccc(CC(=O)Nc2ccc(C(=O)N(c3ccccn3)C3CC3)cc2)cc1` [Example 40, N-cyclopropyl-4-{2-[4-(ethanesulfonyl)phenyl]acetamido}-N-(pyridin-2-yl)benzamide]: the IC50 at RORγ is ≤ 1000 nM.

For `CCS(=O)(=O)c1ccc(CC(=O)Nc2ccc(C(=O)N3CCCCC3c3ccccc3)cc2)cc1` (stereo not drawn) [Example 33, 2-[4-(ethanesulfonyl)phenyl]-N-[4-(2-phenylpiperidine-1-carbonyl)phenyl]acetamide], at RORγ, the IC50 was ≤ 100 nM.

Consider `CCCN(CC1CC1)C(=O)c1ccc(NC(=O)Cc2ccc(S(=O)(=O)CC)cc2)cc1` [Example 27, N-(cyclopropylmethyl)-4-{2-[4-(ethanesulfonyl)phenyl]acetamido}-N-propylbenzamide], for which the IC50 on RORγ is ≤ 1000 nM.

Consider `CCS(=O)(=O)c1ccc(CC(=O)Nc2ccc(C(=O)N(C)c3ccccn3)cc2)cc1` [Example 23, 4-{2-[4-(ethanesulfonyl)phenyl]acetamido}-N-methyl-N-(pyridin-2-yl)benzamide], for which the IC50 at RORγ was ≤ 1000 nM.

Regarding `CCS(=O)(=O)c1ccc(CC(=O)Nc2ccc(C(=O)N(Cc3ccccc3)Cc3ccccc3)cc2)cc1` [Example 38, N,N-dibenzyl-4-{2-[4-(ethanesulfonyl)phenyl]acetamido}benzamide], the IC50 on RORγ was ≤ 100 nM.

For `CCN(C(=O)c1ccc(NC(=O)Cc2ccc(S(=O)(=O)CC)cc2)nc1)c1ccccc1` [Example 24, 6-{2-[4-(ethanesulfonyl)phenyl]acetamido}-N-ethyl-N-phenylpyridine-3-carboxamide], at RORγ, the IC50 is ≤ 1000 nM.

On to `CCCN(Cc1ccccc1)C(=O)c1ccc(NC(=O)Cc2ccc(S(=O)(=O)CC)cc2)cc1` [Example 25, N-benzyl-4-{2-[4-(ethanesulfonyl)phenyl]acetamido}-N-propylbenzamide], for which the IC50 on RORγ was ≤ 100 nM.

`CCCN(C(=O)c1ccc(NC(=O)Cc2ccc(S(=O)(=O)CC)cc2)cc1)c1cc(C)on1` [Example 5, 4-{2-[4-(ethanesulfonyl)phenyl]acetamido}-N-(5-methyl-1,2-oxazol-3-yl)-N-propylbenzamide]: the IC50 in assay [1] (setting [2]) was ≤ 100 nM.

In the case of `CCS(=O)(=O)c1ccc(CC(=O)Nc2ccc(C(=O)N3CCCc4ccccc43)cc2)cc1` [Example 28, 2-[4-(ethanesulfonyl)phenyl]-N-[4-(1,2,3,4-tetrahydroquinoline-1-carbonyl)phenyl]acetamide], the IC50 at RORγ is ≤ 100 nM.

`CCN(C(=O)c1ccc(NC(=O)Cc2ccc(S(=O)(=O)CC)nc2)cc1F)c1ccccc1` [Example 43, 4-{2-[6-(ethanesulfonyl)pyridin-3-yl]acetamido}-N-ethyl-2-fluoro-N-phenylbenzamide]: the IC50 on RORγ was ≤ 1000 nM.

As to `CCCN(C(=O)c1ccc(NC(=O)Cc2ccc(S(=O)(=O)CC)cc2)cc1)c1cc(C)nn1C` [Example 6, N-(1,3-dimethyl-1H-pyrazol-5-yl)-4-{2-[4-(ethanesulfonyl)phenyl]acetamido}-N-propylbenzamide], in assay [1] (setting [2]), the IC50 was ≤ 100 nM.

For `CCS(=O)(=O)c1ccc(CC(=O)Nc2ccc(C(=O)N(c3ccccc3)C3CC(F)(F)C3)cc2)cc1` [Example 21, N-(3,3-difluorocyclobutyl)-4-{2-[4-(ethanesulfonyl)phenyl]acetamido}-N-phenylbenzamide], in assay [1] (setting [2]), the IC50 is ≤ 100 nM.

On to `CCS(=O)(=O)c1ccc(CC(=O)Nc2ccc(C(=O)N(c3ccccn3)C3CCC3)cc2)cc1` [Example 41, N-cyclobutyl-4-{2-[4-(ethanesulfonyl)phenyl]acetamido}-N-(pyridin-2-yl)benzamide], for which the IC50 at RORγ was ≤ 1000 nM.

Take `CCS(=O)(=O)c1ccc(CC(=O)Nc2ccc(C(=O)N3CCCC3c3ccccc3)cc2)cc1` (stereo not drawn) [Example 29, 2-[4-(ethanesulfonyl)phenyl]-N-[4-(2-phenylpyrrolidine-1-carbonyl)phenyl]acetamide]: the IC50 at RORγ is ≤ 1000 nM.

`CCS(=O)(=O)c1ccc(CC(=O)Nc2ccc(C(=O)N(C)Cc3ccco3)cc2)cc1` [Example 37, 4-{2-[4-(ethanesulfonyl)phenyl]acetamido}-N-(furan-2-ylmethyl)-N-methylbenzamide]: at RORγ, the IC50 is ≤ 1000 nM.

As to `CCCN(C(=O)c1ccc(NC(=O)Cc2ccc(S(=O)(=O)CC)cc2)cc1)c1cccnc1` [Example 31, 4-{2-[4-(ethanesulfonyl)phenyl]acetamido}-N-propyl-N-(pyridin-3-yl)benzamide], the IC50 at RORγ is ≤ 100 nM.

Turning to `CCS(=O)(=O)c1ccc(CC(=O)Nc2ccc(C(=O)N(C)c3ccccc3)cc2)cc1` [Example 30, 4-{2-[4-(ethanesulfonyl)phenyl]acetamido}-N-methyl-N-phenylbenzamide], the IC50 at RORγ is ≤ 100 nM.

As for `CCN(C(=O)c1ccc(NC(=O)Cc2ccc(S(=O)(=O)CC)cc2)cc1)c1ccccc1` [Example 34, 4-{2-[4-(ethanesulfonyl)phenyl]acetamido}-N-ethyl-N-phenylbenzamide], the IC50 on RORγ was ≤ 10 nM.

In the case of `CCN(C(=O)c1ccc(NC(=O)Cc2ccc(S(=O)(=O)CC)cc2)cc1)c1nc(C)c(C)s1` [Example 13, N-(4-methyl-5-methyl-1,3-thiazol-2-yl)-4-{2-[4-(ethanesulfonyl)phenyl]acetamido}-N-ethylbenzamide], the IC50 in assay [1] (read-out:) is ≤ 100 nM.

Turning to `CCS(=O)(=O)c1ccc(CC(=O)Nc2ccc(C(=O)N(c3ccc(C)cc3)C(C)(C)CO)cc2)cc1` [Example 42, 4-{2-[4-(ethanesulfonyl)phenyl]acetamido}-N-(1-hydroxy-2-methylpropan-2-yl)-N-(4-methylphenyl)benzamide], the IC50 at RORγ was ≤ 100 nM.
